In ChEMBL document CHEMBL1151859, “Structure-activity relationship studies of a novel series of anthrax lethal factor inhibitors” (Bioorg Med Chem, 2009):

Each compound was assayed against T1, Lethal factor (Bacillus anthracis, UniProt P15917) (assay: Inhibition of Bacillus anthracis lethal factor assessed as cleavage of MAPKK by fluorescence peptide cleavage assay).
T1 sequence (P15917 whole entry): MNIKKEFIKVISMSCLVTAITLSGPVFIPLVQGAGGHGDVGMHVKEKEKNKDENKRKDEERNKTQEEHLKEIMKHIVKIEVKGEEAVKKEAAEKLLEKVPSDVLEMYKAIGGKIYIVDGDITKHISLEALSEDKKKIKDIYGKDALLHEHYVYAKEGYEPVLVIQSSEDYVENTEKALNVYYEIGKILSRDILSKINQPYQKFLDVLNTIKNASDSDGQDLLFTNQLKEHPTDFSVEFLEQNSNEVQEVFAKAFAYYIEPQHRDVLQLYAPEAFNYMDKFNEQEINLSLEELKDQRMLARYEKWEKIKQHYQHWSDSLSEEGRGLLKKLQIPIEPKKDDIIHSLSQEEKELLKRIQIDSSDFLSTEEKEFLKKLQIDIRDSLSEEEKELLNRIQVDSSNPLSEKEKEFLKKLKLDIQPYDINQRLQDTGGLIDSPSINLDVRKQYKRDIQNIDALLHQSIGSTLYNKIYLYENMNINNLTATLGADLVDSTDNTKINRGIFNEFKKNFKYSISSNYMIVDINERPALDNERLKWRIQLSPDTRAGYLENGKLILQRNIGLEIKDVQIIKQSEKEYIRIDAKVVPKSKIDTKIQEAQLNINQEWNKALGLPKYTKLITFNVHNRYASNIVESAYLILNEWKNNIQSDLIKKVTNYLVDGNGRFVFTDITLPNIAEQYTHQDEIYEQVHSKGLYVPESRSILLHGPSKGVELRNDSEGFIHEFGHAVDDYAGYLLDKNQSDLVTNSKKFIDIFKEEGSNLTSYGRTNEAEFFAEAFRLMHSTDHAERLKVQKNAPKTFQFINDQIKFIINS
`Cc1csc(N)c1-c1nc2ccccc2s1` showed an IC50 greater than 100 µM.
Compound `O=S(=O)(Nc1sccc1-c1nc2ccccc2s1)c1ccc(Br)cc1` has an IC50 of 8 µM.
Work on `Cc1nccc(-c2cccc(S(=O)(=O)Nc3sccc3-c3nc4ccccc4s3)c2)n1` yielded an IC50 of 12 µM.
In the case of `COc1ccc(-c2ccc(S(=O)(=O)Nc3oncc3-c3nc4ccccc4s3)cc2)cc1`, the IC50 is reported as greater than 100 µM.
In the case of `COc1ccc(-c2ccc(S(=O)(=O)NCCc3nc4ccccc4s3)cc2)cc1`, the IC50 is reported as greater than 50 µM.
`CN1CCOc2cc(S(=O)(=O)Nc3sccc3-c3nc4ccccc4s3)cnc21` gave an IC50 of 27 µM.
Work on `Cc1csc(NS(=O)(=O)c2ccc(C(C)(C)C)cc2)c1-c1nc2ccccc2s1` yielded an IC50 greater than 100 µM.
Compound `O=S(=O)(Nc1sccc1-c1nc2ccccc2s1)c1ccc2cc(Cl)ccc2c1` has an IC50 of 11 µM.
`O=S(=O)(Nc1sccc1-c1nc2ccccc2s1)c1ccc(-c2ccc(OC(F)(F)F)cc2)cc1` gave an IC50 of 3.9 µM.
In the case of `Cc1csc(NS(=O)(=O)c2ccc(-c3ccccc3)cc2)c1-c1nc2ccccc2s1`, the IC50 is reported as 17 µM.
`COc1ccc(-c2cccc(S(=O)(=O)Nc3sccc3-c3nc4ccccc4s3)c2)cc1` showed an IC50 of 14 µM.
`Cc1csc(NS(=O)(=O)c2ccc(Cl)c(Cl)c2)c1-c1nc2ccccc2s1` showed an IC50 greater than 100 µM.
Compound `Cc1ccc(S(=O)(=O)Nc2scc(C)c2-c2nc3ccccc3s2)cc1F` has an IC50 of 35 µM.
Compound `COc1cccc(S(=O)(=O)Nc2scc(C)c2-c2nc3ccccc3s2)c1` has an IC50 of 11 µM.
`O=S(=O)(Nc1sccc1-c1nc2ccccc2s1)c1ccc(-c2cncs2)cc1` gave an IC50 of 12 µM.
`COc1ccc(-c2cccc(S(=O)(=O)Nc3scc(C)c3-c3nc4ccccc4s3)c2)cc1` showed an IC50 of 16 µM.
In the case of `Cc1ccc(S(=O)(=O)Nc2sccc2-c2nc3ccccc3s2)cc1F`, the IC50 is reported as 11 µM.
`O=S(=O)(Nc1sccc1-c1nc2ccccc2s1)c1cccc(-c2ccc(Cl)cc2)c1` was tested, and the IC50 was 18 µM.
`Cc1c(Cl)cccc1S(=O)(=O)Nc1sccc1-c1nc2ccccc2s1` showed an IC50 greater than 50 µM.
`O=S(=O)(Nc1sccc1-c1nc2ccccc2s1)c1ccc2c(c1)OCCO2` showed an IC50 of 27 µM.
In the case of `O=S(=O)(Nc1sccc1-c1nc2ccccc2s1)c1ccc(S(=O)(=O)N2CCOCC2)cc1`, the IC50 is reported as 17 µM.
Work on `Cc1ccc(S(=O)(=O)Nc2scc(C)c2-c2nc3ccccc3s2)cc1Cl` yielded an IC50 of 8.9 µM.
`CC(=O)Nc1ccc(S(=O)(=O)Nc2scc(C)c2-c2nc3ccccc3s2)cc1` showed an IC50 of 14 µM.
`Cc1csc(NS(=O)(=O)c2ccc3ccccc3c2)c1-c1nc2ccccc2s1` was tested, and the IC50 was 12 µM.
Compound `COc1ccc(-c2ccc(S(=O)(=O)Nc3ccccc3-c3nc4ccccc4s3)cc2)cc1` has an IC50 greater than 100 µM.
In the case of `Cc1ccc(S(=O)(=O)Nc2nc3ccccc3s2)cc1Cl`, the IC50 is reported as 28 µM.
`Cc1cc(C)n(-c2ccc(S(=O)(=O)Nc3sccc3-c3nc4ccccc4s3)cc2)n1` gave an IC50 of 11 µM.
For `COc1ccc(S(=O)(=O)Nc2sccc2-c2nc3ccccc3s2)cc1OC`, the IC50 was 19 µM.
`O=C(NCc1ccc(S(=O)(=O)Nc2sccc2-c2nc3ccccc3s2)s1)c1ccc(Cl)cc1` was tested, and the IC50 was 14 µM.
`O=S(=O)(Nc1sccc1-c1nc2ccccc2s1)c1ccc(Oc2ccccc2)nc1` showed an IC50 of 43 µM.
Work on `O=S(=O)(Nc1nc2ccccc2s1)c1ccc(-c2ccc(Cl)cc2)cc1` yielded an IC50 greater than 50 µM.
`O=S(=O)(Nc1sccc1-c1nc2ccccc2s1)c1ccc(Cl)c(Cl)c1` gave an IC50 of 9 µM.
`COc1ccc(S(=O)(=O)Nc2scc(C)c2-c2nc3ccccc3s2)cc1` gave an IC50 of 46 µM.
Compound `O=S(=O)(Nc1sccc1-c1nc2ccccc2s1)c1ccc(C(F)(F)F)cc1` has an IC50 of 11 µM.
For `O=S(=O)(Nc1sccc1-c1nc2ccccc2s1)c1ccc(Cl)cc1`, the IC50 was 15 µM.
Compound `Cc1csc(NS(=O)(=O)c2ccc(Cl)cc2)c1-c1nc2ccccc2s1` has an IC50 of 15 µM and a Ki of 7.8 µM.
With `COc1ccc(-c2ccc(S(=O)(=O)Nc3scc(C)c3-c3nc4ccccc4s3)cc2)cc1` the IC50 was 21 µM.
With `O=S(=O)(Nc1sccc1-c1nc2ccccc2s1)c1ccc(F)cc1` the IC50 was 16 µM.
`O=S(=O)(Nc1sccc1-c1nc2ccccc2s1)c1ccc2c(c1)CCO2` was tested, and the IC50 was 22 µM.
`O=S(=O)(Nc1sccc1-c1nc2ccccc2s1)c1ccc2nonc2c1` was tested, and the IC50 was 30 µM.
In the case of `Cc1nnc(-c2cccc(S(=O)(=O)Nc3sccc3-c3nc4ccccc4s3)c2)o1`, the IC50 is reported as 25 µM.
